# Results reported in the NIST ThermoML archive (doi:10.1016/j.jct.2014.12.023).
# ± gives the expanded uncertainty stated by the source.
# Assay: activity coefficient (dimensionless); of the first substance listed, at infinite dilution; xn = mol fraction of the nth substance listed
# Conditions: 87.4 kPa, Liquid, Chromatography, x1 = 0
Structure (SMILES),activity coefficient (313 K),activity coefficient (323 K),activity coefficient (333 K),activity coefficient (343 K)
"ClCCCl [1,2-dichloroethane] + O=S(=O)([N-]S(=O)(=O)C(F)(F)F)C(F)(F)F.O=S(=O)([N-]S(=O)(=O)C(F)(F)F)C(F)(F)F.c1ccc2cc(C[N+]3(CCCCCCCCC[N+]4(Cc5ccc6ccccc6c5)CCCC4)CCCC3)ccc2c1",0.568 ± 0.032,0.569 ± 0.032,0.596 ± 0.033,0.613 ± 0.033
"Cc1ccccc1C [1,2-dimethylbenzene] + O=S(=O)([N-]S(=O)(=O)C(F)(F)F)C(F)(F)F.O=S(=O)([N-]S(=O)(=O)C(F)(F)F)C(F)(F)F.c1ccc2cc(C[N+]3(CCCCCCCCC[N+]4(Cc5ccc6ccccc6c5)CCCC4)CCCC3)ccc2c1",0.84 ± 0.039,0.852 ± 0.039,0.864 ± 0.04,0.894 ± 0.041
"Cc1cccc(C)c1 [1,3-dimethylbenzene] + O=S(=O)([N-]S(=O)(=O)C(F)(F)F)C(F)(F)F.O=S(=O)([N-]S(=O)(=O)C(F)(F)F)C(F)(F)F.c1ccc2cc(C[N+]3(CCCCCCCCC[N+]4(Cc5ccc6ccccc6c5)CCCC4)CCCC3)ccc2c1",0.857 ± 0.042,0.924 ± 0.042,0.941 ± 0.042,0.996 ± 0.045
"Cc1ccc(C)cc1 [1,4-dimethylbenzene] + O=S(=O)([N-]S(=O)(=O)C(F)(F)F)C(F)(F)F.O=S(=O)([N-]S(=O)(=O)C(F)(F)F)C(F)(F)F.c1ccc2cc(C[N+]3(CCCCCCCCC[N+]4(Cc5ccc6ccccc6c5)CCCC4)CCCC3)ccc2c1",0.881 ± 0.04,0.9 ± 0.041,0.929 ± 0.042,0.992 ± 0.045
"C1COCCO1 [1,4-dioxane] + O=S(=O)([N-]S(=O)(=O)C(F)(F)F)C(F)(F)F.O=S(=O)([N-]S(=O)(=O)C(F)(F)F)C(F)(F)F.c1ccc2cc(C[N+]3(CCCCCCCCC[N+]4(Cc5ccc6ccccc6c5)CCCC4)CCCC3)ccc2c1",0.382 ± 0.029,0.397 ± 0.029,0.413 ± 0.03,0.451 ± 0.031
CC(=O)O [acetic acid] + O=S(=O)([N-]S(=O)(=O)C(F)(F)F)C(F)(F)F.O=S(=O)([N-]S(=O)(=O)C(F)(F)F)C(F)(F)F.c1ccc2cc(C[N+]3(CCCCCCCCC[N+]4(Cc5ccc6ccccc6c5)CCCC4)CCCC3)ccc2c1,0.824 ± 0.04,0.767 ± 0.038,0.746 ± 0.036,0.74 ± 0.036
CC#N [acetonitrile] + O=S(=O)([N-]S(=O)(=O)C(F)(F)F)C(F)(F)F.O=S(=O)([N-]S(=O)(=O)C(F)(F)F)C(F)(F)F.c1ccc2cc(C[N+]3(CCCCCCCCC[N+]4(Cc5ccc6ccccc6c5)CCCC4)CCCC3)ccc2c1,0.339 ± 0.028,0.341 ± 0.028,0.349 ± 0.028,0.372 ± 0.029
O=Cc1ccccc1 [benzaldehyde] + O=S(=O)([N-]S(=O)(=O)C(F)(F)F)C(F)(F)F.O=S(=O)([N-]S(=O)(=O)C(F)(F)F)C(F)(F)F.c1ccc2cc(C[N+]3(CCCCCCCCC[N+]4(Cc5ccc6ccccc6c5)CCCC4)CCCC3)ccc2c1,0.997 ± 0.044,0.997 ± 0.044,0.998 ± 0.044,0.999 ± 0.044
c1ccccc1 [benzene] + O=S(=O)([N-]S(=O)(=O)C(F)(F)F)C(F)(F)F.O=S(=O)([N-]S(=O)(=O)C(F)(F)F)C(F)(F)F.c1ccc2cc(C[N+]3(CCCCCCCCC[N+]4(Cc5ccc6ccccc6c5)CCCC4)CCCC3)ccc2c1,0.515 ± 0.031,0.517 ± 0.031,0.52 ± 0.031,0.574 ± 0.034
CCCC=O [butanal] + O=S(=O)([N-]S(=O)(=O)C(F)(F)F)C(F)(F)F.O=S(=O)([N-]S(=O)(=O)C(F)(F)F)C(F)(F)F.c1ccc2cc(C[N+]3(CCCCCCCCC[N+]4(Cc5ccc6ccccc6c5)CCCC4)CCCC3)ccc2c1,0.448 ± 0.03,0.464 ± 0.03,0.487 ± 0.03,0.491 ± 0.03
C1CCCCC1 [cyclohexane] + O=S(=O)([N-]S(=O)(=O)C(F)(F)F)C(F)(F)F.O=S(=O)([N-]S(=O)(=O)C(F)(F)F)C(F)(F)F.c1ccc2cc(C[N+]3(CCCCCCCCC[N+]4(Cc5ccc6ccccc6c5)CCCC4)CCCC3)ccc2c1,3.83 ± 0.22,3.35 ± 0.19,2.98 ± 0.17,2.49 ± 0.16
O=C1CCCCC1 [cyclohexanone] + O=S(=O)([N-]S(=O)(=O)C(F)(F)F)C(F)(F)F.O=S(=O)([N-]S(=O)(=O)C(F)(F)F)C(F)(F)F.c1ccc2cc(C[N+]3(CCCCCCCCC[N+]4(Cc5ccc6ccccc6c5)CCCC4)CCCC3)ccc2c1,0.998 ± 0.044,0.998 ± 0.044,0.999 ± 0.044,1 ± 0.044
